We go through 16 compounds from patent publication US6399629B1, “Efflux pump inhibitors” (priority 1998, dated 2002).

One may read the inhibition as how much of the control response was suppressed.

The test system of this assay is Pseudomonas aeruginosa PAM1001. As to the kind of experiment: microbe, parasite or virus in culture. Format: cell-based. As to conditions: for inhibition at 2.5 µg/mL / inhibition at 5 µg/mL / inhibition at 10 µg/mL / inhibition at 20 µg/mL / inhibition at 40 µg/mL: Pseudomonas aeruginosa, PAM1001, read-out: Inhibition (%) of growth of P. aeruginosa PAM1001; for Inhibition (%) of growth of P. aeruginosa PAM1001: Levofloxacin 0.25 μg/mL. The essentials:
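Growth inhibition is expressed as a percentage relative to a control culture containing 0.25 microg/mL levofloxacin but no EPI. Cultures (MHB, initial 1×10^6 CFU/mL) with levofloxacin and a range of EPI levels were monitored kinetically at 650 nm during 18 h incubation at 37° C.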

The mark [1] stands for this setting: Concentration of Compound 2.5 μg/mL.
Where [2] appears, read: Concentration of Compound 5 μg/mL.
The mark [3] stands for this setting: Concentration of Compound 10 μg/mL.
Where [4] appears, read: Concentration of Compound 20 μg/mL.
The mark [5] stands for this setting: Concentration of Compound 40 μg/mL.

Where a name gives a salt, the structure may show the parent alone.

As to `NCC(=O)N[C@@H]1CN[C@@H](C(=O)N2CCN(Cc3ccccc3)C[C@H]2CCc2ccccc2)C1` [Compound D409, (2R)-4-Benzyl-1-(trans-4-Glycylamino-D-Prolyl)-2-Phenethylpiperazine Trihydrochloride], the inhibition at 2.5 µg/mL was 22%, the inhibition at 5 µg/mL is 16%, the inhibition at 10 µg/mL worked out at 99% and the inhibition at 20 µg/mL turned out to be 100%. Besides, the inhibition at 40 µg/mL was determined as 100%.

Take `NCC(=O)N[C@H]1CN[C@H](C(=O)N2CCC(Oc3ccc(OCc4ccccc4)cc3)CC2)C1` [Compound D413, 1-(trans-4-Glycylamino-L-Prolyl)4-(4-Benzyloxyphenoxy)piperidine Dihydrochloride]: the inhibition at 2.5 µg/mL is 13%, the inhibition at 5 µg/mL came to 8%, the inhibition at 10 µg/mL came out at 97% and the inhibition at 20 µg/mL turned out to be 100%. The inhibition at 40 µg/mL was 100%.

For `NCC(=O)N[C@H]1CN[C@H](C(=O)N2CCC(Oc3cc(Cl)cc(Cl)c3)CC2)C1` [Compound D414, 1-(trans-4-Glycylamino-L-Prolyl)-4-(3,5-dichlorophenoxy)piperidine Dihydrochloride], the inhibition at 2.5 µg/mL was found to be 19%, the inhibition at 5 µg/mL came out at 98%, the inhibition at 10 µg/mL worked out at 100% and the inhibition at 20 µg/mL was 100%. In addition, the inhibition at 40 µg/mL is 100%.

With `Cl.Cl.NCC(=O)N[C@@H]1CN[C@@H](C(=O)N2CCC(Oc3cc(Cl)cc(Cl)c3)CC2)C1` [Compound D415], the “Inhibition (%) of growth of P. aeruginosa PAM1001” value is, setting by setting: under setting [1], 13%; under setting [2], 99%; under setting [3], 100%; under setting [4], 100%; under setting [5], 100%.

With `Cl.Cl.NCC(=O)N[C@H]1CN[C@H](COc2ccc(-c3ccccc3)cc2)C1` [Compound D501, (2S,4R)-4-Glycylamino-2-(4-Biphenyloxy)-methylpyrrolidine Dihydrochloride], the “Inhibition (%) of growth of P. aeruginosa PAM1001” value was 1% under setting [1]; 98% under setting [2]; 100% under setting [3]; 100% under setting [4]; 98% under setting [5].

Turning to `NCC(=O)N[C@H]1CN[C@H](COc2cccc(-c3ccccc3)c2)C1` [Compound D502, (2S,4R)-4-Glycylamino-2-(3-Biphenyloxy)methyl-pyrrolidine Dihydrochloride], the inhibition at 2.5 µg/mL was 13%, the inhibition at 5 µg/mL amounted to 88%, the inhibition at 10 µg/mL was determined as 99% and the inhibition at 20 µg/mL turned out to be 100%. The inhibition at 40 µg/mL came to 100%.

As for `NCC(=O)N[C@@H]1CN[C@@H](COc2ccc(-c3ccccc3)cc2)C1` [Compound D503, (2R,4S)-4-Glycylamino-2-(4-Biphenyloxy)methyl-pyrrolidine Dihydrochloride], the inhibition at 2.5 µg/mL was 22%, the inhibition at 5 µg/mL stood at 15%, the inhibition at 10 µg/mL was 100% and the inhibition at 20 µg/mL came to 100%. Besides, the inhibition at 40 µg/mL was found to be 100%.

For `NCC(=O)N[C@@H]1CN[C@@H](COc2cccc(-c3ccccc3)c2)C1` [Compound D504, (2R,4S)-4-Glycylamino-2-(3-Biphenyloxy)methyl-pyrrolidine Dihydrochloride], the inhibition at 2.5 µg/mL was determined as 22%, the inhibition at 5 µg/mL worked out at 3%, the inhibition at 10 µg/mL is 74% and the inhibition at 20 µg/mL was 100%. Besides, the inhibition at 40 µg/mL is 99%.

Regarding `NCCNC(=O)[C@@H]1C[C@@H](Oc2cccc(-c3ccccc3)c2)CN1` [Compound D601, trans-4-(3-Biphenyloxy)-L-Proline 2-Aminoethylamide Dihydrochloride], the inhibition at 2.5 µg/mL turned out to be 20%, the inhibition at 5 µg/mL is 18%, the inhibition at 10 µg/mL stood at 16% and the inhibition at 20 µg/mL stood at 86%. In addition, the inhibition at 40 µg/mL was 100%.

On to `NCC(O)[C@@H]1C[C@@H](Oc2cccc(-c3ccccc3)c2)CN1` (stereo partly drawn) [Compound D602, (2S,4R)-2-(2-Amino-1-hydroxyethyl)-4-(3-biphenyloxy)pyrrolidine Dihydrochloride], for which the inhibition at 2.5 µg/mL was 98%, the inhibition at 5 µg/mL was determined as 99%, the inhibition at 10 µg/mL worked out at 100% and the inhibition at 20 µg/mL was 100%. The inhibition at 40 µg/mL is 100%.

In the case of `Cl.Cl.NCC(=O)NC1CNC(C(=O)Nc2cccc(NC(=O)CCc3ccccc3)c2)C1` [Compound D701, 1-(N-trans-4-Glycylamino-L-Prolylamino)-3-(4-Phenylpropanoylamino)benzene Dihydrochloride], the “Inhibition (%) of growth of P. aeruginosa PAM1001” value reads like this: under setting [1], 17%; under setting [2], 10%; under setting [3], 96%; under setting [4], 100%; under setting [5], 100%.

On to `Cl.Cl.Cl.NCC(=O)NC1CNC(C(=O)Nc2cccc(NC(=O)CCc3ccccc3)n2)C1` [Compound D702, 2-(trans-4-Glycylamino-L-Prolylamino)-6-(4-Phenylpropanoylamino)Pyridine Trihydrochloride], for which the “Inhibition (%) of growth of P. aeruginosa PAM1001” value under setting [1] is given as 19%; the “Inhibition (%) of growth of P. aeruginosa PAM1001” value under setting [2] was 15%; the “Inhibition (%) of growth of P. aeruginosa PAM1001” value under setting [3] was found to be 82%; the “Inhibition (%) of growth of P. aeruginosa PAM1001” value under setting [4] turned out to be 100%; the “Inhibition (%) of growth of P. aeruginosa PAM1001” value under setting [5] stood at 100%.

Take `Cl.Cl.NCC(=O)N[C@H]1CN[C@H](C=Cc2ccc(-c3ccccc3)cc2)C1` [Compound D801, (2S,4R)-4-Glycylamino-2-((E and Z)-4-Phenyistyryl)-pyrrolidine Dihydrochloride]: the “Inhibition (%) of growth of P. aeruginosa PAM1001” value is recorded as 8% under setting [1]; 63% under setting [2]; 99% under setting [3]; 99% under setting [4]; 99% under setting [5].

Take “trans-4-Glycylamino-D-proline 3-Biphenylamide Dihydrochloride [Compound D307]”: the “Inhibition (%) of growth of P. aeruginosa PAM1001” value was determined as 24% under setting [1]; 5% under setting [2]; 90% under setting [3]; 100% under setting [4]; 100% under setting [5].

For the compound “trans-4-Glycylamino-L-Proline 3-Biphenylamide Dihydrochloride [Compound D306]”, the “Inhibition (%) of growth of P. aeruginosa PAM1001” value under setting [1] was 19%; the “Inhibition (%) of growth of P. aeruginosa PAM1001” value under setting [2] is on record as 7%; the “Inhibition (%) of growth of P. aeruginosa PAM1001” value under setting [3] is 93%; the “Inhibition (%) of growth of P. aeruginosa PAM1001” value under setting [4] came to 100%; the “Inhibition (%) of growth of P. aeruginosa PAM1001” value under setting [5] was determined as 99%.

In the case of “trans-4-Glycylamino-L-Prolyl-4-(2-Chloro-5-Methylphenoxy)-piperidine Dihydrochloride [Compound D416]”, the “Inhibition (%) of growth of P. aeruginosa PAM1001” value reads like this: under setting [1], 21%; under setting [2], 11%; under setting [3], 87%; under setting [4], 99%; under setting [5], 99%.
